Test: Inhibition of estrogen receptor alpha-mediated human MCF7 cell growth inhibition

IC50 | SMILES
64.9 µM | COc1cc(C(=O)CCc2cc3c(cc2OC)CC[C@@H]2[C@@H]3CC[C@]3(C)[C@@H](O)CC[C@@H]23)ccc1O
64.9 µM | COc1ccc2c(c1)CC[C@@H]1[C@@H]2CC[C@]2(C)[C@@H](OC(C)=O)CC[C@@H]12
64.9 µM | COc1cc2c(cc1C=O)[C@H]1CC[C@]3(C)[C@@H](OC(C)=O)CC[C@H]3[C@@H]1CC2
